The nature of series [1]: in vitro. The conditions noted are these: rat, liver microsomes.
Protocol: (§2) The final concentration of the substrate in the incubation system was 1 µM, and the incubation time was 60 min. Sampling was performed at 0 min, 5 min, 15 min, 30 min, and 60 min. The reaction was stopped with glacial acetonitrile containing an internal standard (testosterone-d3 at a concentration of 10 ng/mL). Verapamil was used as a positive control. […] The natural logarithm of the remaining percentage was subjected to linear fitting with time to determine the elimination rate constant (k).
The nature of series [2]: Metabolic stability in liver microsomes. Particulars: Mouse liver microsomes, after 60 min of incubation.
Protocol: as §2
The next series deals with Romas. Briefly: In vitro anti-tumor activity of molecular glue compounds, CellTiter-Lumi cell viability assay. Format: cell-based. The conditions noted are these: Romas cells, 96 h incubation; read-out: Cell inhibitory activity (IC50 values) Romas. Here is the method:
(§1) Different tumor cells were all commercially available and used for evaluating the anti-tumor inhibitory activity of the compounds of the present disclosure. Various tumor cells were cultured until the cell confluency reached 80%-90%, with cell viability above 90% as determined by trypan blue exclusion. Then, the cells were plated. Specifically, after cell density optimization, 100 µL of each of the cell suspensions of HL-60 and SK-BR-3 cells (cell density: 3000 cells/well), Romas cells (cell density: 6000 cells/well), NCI-H929 cells (cell density: 4000 cells/well), and NCI-H82 cells (cell density: 5000 cells/well) was plated in a BeyoGold™ ultra-low attachment black clear-bottom 96-well plate (Cat. No.: FULA965-24pcs), and the plate was incubated overnight. The next day, after the adherent cells were adhered to the wall and suspension cells requiring aggregation were aggregated, 50 µL of culture medium was aspirated from each well of the 96-well plate. Then, the compounds diluted with the corresponding culture media were added. Specifically, the compounds were serially diluted at a 5-fold gradient starting from the highest concentration of 1 µM, with a final DMSO concentration of 1%o, and the test compounds were then added to the cell culture plate. The plate was incubated in an incubator at 37 °C with 5% carbon dioxide for 96 h. Before measurement, the CellTiter-Lumi™ luminescent cell viability assay reagent was equilibrated to room temperature in the dark. Then, 50 µL of the CellTiter-Lumi™ (Cat. No.: C0065XL) cell viability assay reagent was added to each well of the 96-well plate. The plate was shaken in the dark on a shaker at 300 rpm for 10 min to ensure complete cell lysis. After the reaction was completed, the luminescence was measured on a multi-mode microplate reader. The cell inhibition rate was determined according to the luminescence. Then, a cell viability curve was generated by Graphpad Prism 8.0, and the IC50 values were calculated. The compounds of the present disclosure were tested for activity by the method described above. Table 1. Cell inhibitory activity (IC50 values)

The subject of another series is HL-60. Described as above. Format: cell-based. Particulars: Homo sapiens; HL-60 cells, 96 h incubation; read-out: Cell inhibitory activity (IC50 values) HL-60. Here is the method:
as §1

In a further series the test system is SK-BR-3. The series is described as above. Format: cell-based. The conditions noted are these: Homo sapiens, SK-BR-3 cells. Here is the method: as §1
For another series, the system named is NCI-H82. The description is as above. Format: cell-based. Particulars: Homo sapiens; NCI-H82 cells, 96 h incubation; read-out: Cell inhibitory activity (IC50 values) NCI-H82. Here is the method: as §1
For another series, the system named is NCI-H929. The series is described as above. The conditions noted are these: Homo sapiens; NCI-H929 cells, 96 h incubation; read-out: Cell inhibitory activity (IC50 values) NCI-H929. The class given is cell-based. Here is the method: as §1
A short description of series [3]: in vitro. The conditions noted are these: monkey, liver microsomes.
Protocol: as §2

This is an account of results in EP4667463A1, “DOMIDE MOLECULAR GLUE DERIVATIVE AND USE THEREOF” (CSPC Megalith Biopharmaceutical Co., Ltd., priority 2023, dated 2024).

Read-outs that look alike come from different tables or passages of the source.

`O=C1CCC(N2Cc3cc(CNC(=O)Nc4ccc(CCCOC5CCCNC5)c(Cl)c4)ccc3C2=O)C(=O)N1` (centres unmarked) [Compound B19]: the CLint scaled at 1 µM in the series “in vitro [1]” was 6.55 mL/min/kg; in “in vitro [3]” it was 11.3 mL/min/kg. Besides, the half-life at 1 µM in “in vitro [1]” amounted to 6.32 h; in the series “in vitro [3]”, 3 h. In series [2], the “Parent drug remaining %” value is listed as 92.8%. The IC50 with Romas was under 10 nM; in the series on HL-60, under 10 nM; in the series with SK-BR-3 (96 h incubation, read-out: Cell inhibitory activity (IC50 values) SK-BR-3), under 10 nM; with SK-BR-3 (read-out: SK-BR-3 IC50) it was 3.62 nM; with NCI-H82, 10 to 50 nM; with NCI-H929, under 10 nM.
